From patent US20240092758A1, “IMIDAZOLO INDAZOLE COMPOUNDS AS JAK INHIBITORS” (Theravance Biopharma R&D IP, LLC, priority 2021, published 2024)

How the values were obtained:
[1] = molecular target: JAK2 (Homo sapiens (Human), UniProt O60674); experiment: Biochemical JAK kinase assay (LanthaScreen), JAK2; conditions: for Ki: read-out: JAK2 pKi (converted)
In short: (§1)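 LanthaScreen format: phospho-STAT1 (pTyr701) detected with 2 nM Tb antibody after 10 mM EDTA quench. Kinase step used Km-level ATP and 200 nM STAT1 peptide, 1 h at ambient after 1 h pre-incubation. Inhibition fitted to IC50, reported as pKi.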

[2] = molecular target: JAK1 (Homo sapiens (Human), UniProt P23458); experiment: Biochemical JAK kinase assay (LanthaScreen), JAK1; conditions: for Ki: read-out: JAK1 pKi (converted)
In short: as §1

[3] = Pharmacokinetics in plasma and lung in mouse after oral aspiration administration; assay type: in vivo; conditions: male CD1 mice; for Lung Tissue AUC(0-24) / AUC(0-t): 0.2 mg/mL, two 25 μL increments; for Lung Tissue:Plasma AUC ratio: lung AUC to plasma AUC; for AUC(0-t): mouse, inhaled or intranasal, 0.01 mg/mouse, plasma, read-out: Plasma AUC(0-24)
Method: Plasma and lung concentrations of test compounds were quantified and pharmacokinetic parameters were calculated in the following manner. Male CD1 mice from Charles River Laboratories were used in the pharmacokinetic studies. Test compounds were individually formulated in 20% propylene glycol in pH 4 citrate buffer at a concentration of 0.2 mg/mL. Test compounds were administered in two, 25 μL increments introduced into the trachea of each mouse by oral aspiration using a calibrated pipette once the animal was anesthetized using isoflurane. Blood samples were collected as terminal collections via cardiac puncture at 0.167, 1, 4, 8, and 24 hr post-dosing. Following […] with CO2, a direct cardiac puncture was performed while avoiding puncturing the lung and blood was immediately transferred into K2EDTA tubes and placed on wet ice. Blood samples were centrifuged (Eppendorf centrifuge, 5804R) for 4 minutes at approximately 12,000 rpm at 4° C. to collect plasma. Intact lungs were also excised from these mice using the same timepoints (0.167, 1, 4, 8, and 24 hr). Lungs were washed with sterile water to remove any blood residue and were patted dry, weighed, and homogenized in 0.1% formic acid in water at a dilution of 1:3 (lung:water, weight/volume). Plasma and lung concentrations of test compounds were determined by LC-MS/MS analysis against analytical standards constructed into a standard curve in the test matrix. The pharmacokinetic parameters of test compounds were determined by non-compartmental analysis. For concentrations below the limit of quantification, zero was used for mean calculations. Mean values were not reported if more than 50% of the samples were below the limit of quantification at a timepoint, or if more than 50% of a calculated pharmacokinetic parameter was not reportable. The area under the concentration-time curve extrapolated to infinity (AUC(0-inf)) was calculated as follows: AUC(0-inf)=AUC(0-t)+Clast/k, where AUC(0-t) is the area under the concentration-time curve from the time of dosing to the last measurable concentration calculated by the linear trapezoidal rule, Clast is the last measurable concentration, and k is the first order rate constant associated with the terminal elimination phase, estimated by linear regression of time versus log concentration. The lung-to-plasma AUC ratio was determined as the ratio of the lung AUC(0-inf) in μg*hr/g to the plasma AUC(0-inf) in μg*hr/mL.

[4] = molecular target: TYK2 (Homo sapiens (Human), UniProt P29597); experiment: Biochemical JAK kinase assay (LanthaScreen), Tyk2; conditions: read-out: Tyk2 pKi (converted)
In short: as §1

[5] = molecular target: JAK3 (Homo sapiens (Human), UniProt P52333); experiment: Biochemical JAK kinase assay (LanthaScreen), JAK3; conditions: read-out: JAK3 pKi (converted)
In short: as §1

[6] = test system: IL-13 induced STAT6 phosphorylation in BEAS-2B human lung epithelial cells; experiment: Cellular JAKI potency assay (BEAS-2B); assay type: cell-based; conditions: Homo sapiens, BEAS-2B, BEAS-2B cells, read-out: BEAS2B pIC50 (converted)
In short: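 BEAS-2B cells were preincubated with compound (0.1% DMSO) in HBSS/HEPES/BSA for 1 h at 37 °C, then stimulated with IL-13 (80 ng/mL before addition) for 30 min. After lysis, pSTAT6 (Tyr641) was quantified by AlphaLISA SureFire; IC50 from a 4-parameter fit of percent inhibition, reported as pIC50.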

Chain of JAK3 (P52333 whole entry): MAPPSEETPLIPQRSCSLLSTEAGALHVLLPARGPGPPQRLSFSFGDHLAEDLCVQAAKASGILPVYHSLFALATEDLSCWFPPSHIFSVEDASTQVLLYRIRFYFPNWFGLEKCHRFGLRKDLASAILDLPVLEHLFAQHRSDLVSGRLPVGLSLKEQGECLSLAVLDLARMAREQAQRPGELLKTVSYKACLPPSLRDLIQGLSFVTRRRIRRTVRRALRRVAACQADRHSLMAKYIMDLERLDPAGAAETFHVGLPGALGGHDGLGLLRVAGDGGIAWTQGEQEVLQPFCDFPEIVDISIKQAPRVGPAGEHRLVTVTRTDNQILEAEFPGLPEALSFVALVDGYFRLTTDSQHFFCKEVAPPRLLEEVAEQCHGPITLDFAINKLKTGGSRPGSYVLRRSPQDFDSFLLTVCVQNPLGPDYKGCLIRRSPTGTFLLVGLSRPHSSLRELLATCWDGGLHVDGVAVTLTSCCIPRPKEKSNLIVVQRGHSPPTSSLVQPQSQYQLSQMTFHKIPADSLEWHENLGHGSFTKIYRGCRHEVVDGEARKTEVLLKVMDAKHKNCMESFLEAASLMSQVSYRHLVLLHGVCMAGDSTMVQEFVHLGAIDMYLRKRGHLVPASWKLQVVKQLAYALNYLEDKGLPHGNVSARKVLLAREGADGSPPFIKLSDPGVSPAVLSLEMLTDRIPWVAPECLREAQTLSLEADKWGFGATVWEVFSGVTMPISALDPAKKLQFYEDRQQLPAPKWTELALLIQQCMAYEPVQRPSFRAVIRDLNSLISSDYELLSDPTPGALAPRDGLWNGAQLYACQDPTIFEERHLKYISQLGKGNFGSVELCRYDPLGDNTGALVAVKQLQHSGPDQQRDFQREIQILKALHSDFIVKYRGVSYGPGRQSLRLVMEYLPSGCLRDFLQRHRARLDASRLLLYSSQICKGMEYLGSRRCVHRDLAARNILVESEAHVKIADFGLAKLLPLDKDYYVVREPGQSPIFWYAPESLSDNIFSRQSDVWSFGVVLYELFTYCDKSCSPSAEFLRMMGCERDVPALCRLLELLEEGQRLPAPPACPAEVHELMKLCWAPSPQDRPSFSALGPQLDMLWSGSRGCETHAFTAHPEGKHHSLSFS
Chain of JAK1 (P23458 whole entry): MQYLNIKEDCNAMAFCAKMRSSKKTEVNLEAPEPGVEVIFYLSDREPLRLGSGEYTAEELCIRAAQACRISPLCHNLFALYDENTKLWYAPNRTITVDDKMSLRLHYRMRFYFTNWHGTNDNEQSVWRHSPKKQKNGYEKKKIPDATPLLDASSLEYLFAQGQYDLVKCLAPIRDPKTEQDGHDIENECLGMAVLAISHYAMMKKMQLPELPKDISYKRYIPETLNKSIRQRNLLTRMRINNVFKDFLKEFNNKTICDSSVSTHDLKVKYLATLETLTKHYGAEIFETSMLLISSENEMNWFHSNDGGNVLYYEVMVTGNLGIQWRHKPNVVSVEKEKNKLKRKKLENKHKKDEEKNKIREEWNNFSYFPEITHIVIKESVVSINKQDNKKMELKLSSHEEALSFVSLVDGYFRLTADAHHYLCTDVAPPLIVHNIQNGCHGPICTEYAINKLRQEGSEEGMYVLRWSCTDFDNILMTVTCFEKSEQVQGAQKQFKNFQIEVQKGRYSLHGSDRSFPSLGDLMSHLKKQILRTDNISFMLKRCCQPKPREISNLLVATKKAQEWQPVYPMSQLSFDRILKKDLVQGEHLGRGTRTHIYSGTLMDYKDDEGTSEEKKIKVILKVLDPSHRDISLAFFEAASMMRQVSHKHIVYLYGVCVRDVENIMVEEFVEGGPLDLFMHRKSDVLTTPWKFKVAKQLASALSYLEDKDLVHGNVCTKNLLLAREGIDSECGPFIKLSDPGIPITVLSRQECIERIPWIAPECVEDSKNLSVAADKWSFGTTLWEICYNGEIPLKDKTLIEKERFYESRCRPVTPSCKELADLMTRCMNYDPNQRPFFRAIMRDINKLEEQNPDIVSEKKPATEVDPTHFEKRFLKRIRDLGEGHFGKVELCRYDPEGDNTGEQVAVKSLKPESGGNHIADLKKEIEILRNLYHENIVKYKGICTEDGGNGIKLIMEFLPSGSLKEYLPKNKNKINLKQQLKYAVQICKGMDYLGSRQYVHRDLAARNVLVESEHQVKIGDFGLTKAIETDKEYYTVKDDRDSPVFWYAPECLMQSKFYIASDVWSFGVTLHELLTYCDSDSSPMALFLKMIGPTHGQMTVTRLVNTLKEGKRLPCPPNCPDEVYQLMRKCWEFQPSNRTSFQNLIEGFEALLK
Chain of JAK2 (O60674 whole entry): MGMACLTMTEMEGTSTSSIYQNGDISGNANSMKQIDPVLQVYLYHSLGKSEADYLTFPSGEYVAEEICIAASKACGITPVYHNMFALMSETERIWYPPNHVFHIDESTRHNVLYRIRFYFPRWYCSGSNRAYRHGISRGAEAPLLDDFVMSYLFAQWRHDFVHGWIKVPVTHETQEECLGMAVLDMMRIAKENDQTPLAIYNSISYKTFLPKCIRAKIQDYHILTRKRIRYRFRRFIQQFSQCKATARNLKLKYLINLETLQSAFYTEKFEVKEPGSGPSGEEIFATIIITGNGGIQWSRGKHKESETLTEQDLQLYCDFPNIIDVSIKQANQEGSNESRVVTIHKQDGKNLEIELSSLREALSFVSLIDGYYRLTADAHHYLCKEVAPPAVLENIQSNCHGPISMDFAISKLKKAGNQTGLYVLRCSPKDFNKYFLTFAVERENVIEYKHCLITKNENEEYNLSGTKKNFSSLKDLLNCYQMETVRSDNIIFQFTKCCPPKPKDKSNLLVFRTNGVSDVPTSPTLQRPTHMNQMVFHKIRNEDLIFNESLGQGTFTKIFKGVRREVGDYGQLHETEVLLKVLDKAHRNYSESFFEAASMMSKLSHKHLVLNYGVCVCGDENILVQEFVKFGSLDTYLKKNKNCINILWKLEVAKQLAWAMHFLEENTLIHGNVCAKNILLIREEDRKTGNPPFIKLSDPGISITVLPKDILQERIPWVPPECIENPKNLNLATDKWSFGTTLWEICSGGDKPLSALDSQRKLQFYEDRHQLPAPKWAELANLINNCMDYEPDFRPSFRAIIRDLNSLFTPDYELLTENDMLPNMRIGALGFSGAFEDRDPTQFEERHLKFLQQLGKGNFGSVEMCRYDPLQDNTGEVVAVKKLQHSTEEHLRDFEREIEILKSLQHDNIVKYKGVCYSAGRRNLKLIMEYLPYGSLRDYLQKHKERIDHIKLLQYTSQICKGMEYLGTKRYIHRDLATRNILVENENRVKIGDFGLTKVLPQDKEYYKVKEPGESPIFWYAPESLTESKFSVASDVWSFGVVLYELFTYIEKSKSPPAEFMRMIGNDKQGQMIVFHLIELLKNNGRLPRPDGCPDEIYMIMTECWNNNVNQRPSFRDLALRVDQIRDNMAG
Chain of TYK2 (P29597 whole entry): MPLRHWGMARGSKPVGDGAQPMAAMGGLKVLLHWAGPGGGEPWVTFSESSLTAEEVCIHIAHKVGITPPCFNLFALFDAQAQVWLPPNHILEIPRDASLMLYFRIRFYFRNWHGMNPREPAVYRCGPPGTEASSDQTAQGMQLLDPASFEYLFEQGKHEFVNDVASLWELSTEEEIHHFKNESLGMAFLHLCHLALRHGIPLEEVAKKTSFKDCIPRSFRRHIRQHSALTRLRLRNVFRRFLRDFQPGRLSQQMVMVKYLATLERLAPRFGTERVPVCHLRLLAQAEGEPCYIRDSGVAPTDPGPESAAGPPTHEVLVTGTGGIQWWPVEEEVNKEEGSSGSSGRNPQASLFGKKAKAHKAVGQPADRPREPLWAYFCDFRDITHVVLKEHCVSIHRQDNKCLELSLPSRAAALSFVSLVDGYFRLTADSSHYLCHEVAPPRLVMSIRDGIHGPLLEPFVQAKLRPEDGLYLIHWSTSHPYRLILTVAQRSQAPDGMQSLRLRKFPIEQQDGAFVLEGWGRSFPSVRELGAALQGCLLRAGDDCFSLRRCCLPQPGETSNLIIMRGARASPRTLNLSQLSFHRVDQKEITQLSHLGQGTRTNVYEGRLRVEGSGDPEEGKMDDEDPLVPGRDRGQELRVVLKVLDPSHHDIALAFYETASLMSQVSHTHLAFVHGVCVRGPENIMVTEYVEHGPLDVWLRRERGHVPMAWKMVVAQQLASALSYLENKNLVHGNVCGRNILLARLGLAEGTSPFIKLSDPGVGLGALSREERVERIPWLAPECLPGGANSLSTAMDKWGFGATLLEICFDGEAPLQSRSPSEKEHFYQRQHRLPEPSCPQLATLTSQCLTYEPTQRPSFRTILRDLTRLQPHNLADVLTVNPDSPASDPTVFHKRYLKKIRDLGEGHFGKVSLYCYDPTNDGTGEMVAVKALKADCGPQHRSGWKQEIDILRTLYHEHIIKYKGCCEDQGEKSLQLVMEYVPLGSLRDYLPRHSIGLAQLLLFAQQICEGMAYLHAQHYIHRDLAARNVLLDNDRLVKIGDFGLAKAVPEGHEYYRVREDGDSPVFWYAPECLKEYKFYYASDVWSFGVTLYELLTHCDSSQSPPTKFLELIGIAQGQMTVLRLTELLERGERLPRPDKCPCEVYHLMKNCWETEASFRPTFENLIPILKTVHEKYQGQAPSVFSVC

Row | SMILES | Ki [1] [nM] | JAK1 pKi [2] | Lung Tissue AUC(0-24) [3] | Lung Tissue:Plasma AUC ratio [3] | AUC(0-t) [3] [ng·h/mL] | Ki [4] [nM] | Ki [5] [nM] | IC50 [6] [nM] | JAK2 pKi [1] | Ki [2] [nM]
1 | CCc1cc(O)ccc1-c1ccc2c(-c3nc(C4=CCNC4)c[nH]3)n[nH]c2c1 [Compound 5, 4-(3-(4-(2,5-dihydro-1H-pyrrol-3-yl)-1H-imidazol-2-yl)-1H-indazol-6-yl)-3-ethylphenol] | 0.1 to 1 | A (A represents a pKi value ≥10 (Ki≤0.1 nM)) | C (C denotes a value between 9 and 50) | D (D denotes a ratio between 50 and 100) | < 500 | 0.1 to 1 | 0.1 to 1 | 3.16 to 10 |  | 
2 | CCc1cc(O)ccc1-c1ccc2c(-c3nc(C4=CCCN(C5CCN(C)CC5)C4)c[nH]3)n[nH]c2c1 [Example 192] |  |  | A (For the Lung Tissue AUC(0-24), A denotes a value between 100 and 200) | A (For the ratio of lung exposure to plasma exposure, A denotes a ratio 300-410) | < 500 | 1 to 10 | 0.1 to 1 | 10 to 31.6 | A (A represents a pKi value ≥10 (Ki≤0.1 nM)) | 0.1 to 1
3 | CCc1cc(O)ccc1-c1ccc2c(-c3nc(C4=CC[C@H](C)NC4)c[nH]3)n[nH]c2c1F [Example 234] | 0.1 to 1 | A (A represents a pKi value ≥10 (Ki≤0.1 nM)) | B (B denotes a value between 50 and 100) | C (C denotes a ratio between 100 and 200) | < 500 | 1 to 10 | 1 to 10 | 3.16 to 10 |  | 
4 | CCc1cc(O)ccc1-c1ccc2c(-c3nc(C4=CCN(C5CCN(C)CC5)CC4)c[nH]3)n[nH]c2c1F [Example 185] | 0.1 to 1 |  | A (For the Lung Tissue AUC(0-24), A denotes a value between 100 and 200) | B (B denotes a ratio between 200 and 300) | 500 to 1000 | 1 to 10 | 0.1 to 1 | 10 to 31.6 |  | 0.1 to 1
5 | CCc1cc(O)ccc1-c1ccc2c(-c3nc(C4=CCCN(CCCO)C4)c[nH]3)n[nH]c2c1F [Example 45] |  |  | C (C denotes a value between 9 and 50) | C (C denotes a ratio between 100 and 200) | < 500 | 1 to 10 | 0.1 to 1 | 3.16 to 10 | A (A represents a pKi value ≥10 (Ki≤0.1 nM)) | 0.1 to 1
6 | CCc1cc(O)ccc1-c1ccc2c(-c3nc(C4=CCN(C(=O)[C@@H](N)C(C)(C)O)C4)c[nH]3)n[nH]c2c1 [Example 170] |  |  | B (B denotes a value between 50 and 100) | C (C denotes a ratio between 100 and 200) | < 500 | 0.1 to 1 | 0.1 to 1 | 10 to 31.6 | A (A represents a pKi value ≥10 (Ki≤0.1 nM)) | 0.1 to 1
7 | CCc1cc(O)ccc1-c1ccc2c(-c3nc(C4=CCN(C(C)C)CC4)c[nH]3)n[nH]c2c1F [Example 22] |  |  | C (C denotes a value between 9 and 50) | D (D denotes a ratio between 50 and 100) | < 500 | 1 to 10 | 0.1 to 1 | 3.16 to 10 | A (A represents a pKi value ≥10 (Ki≤0.1 nM)) | 0.1 to 1
8 | CCc1cc(O)ccc1-c1ccc2c(-c3nc(C4=CCCNC4)c[nH]3)n[nH]c2c1F [Compound 6, 3-ethyl-4-(7-fluoro-3-(4-(1,2,5,6-tetrahydropyridin-3-yl)-1H-imidazol-2-yl)-1H-indazol-6-yl)phenol] | 0.1 to 1 |  | B (B denotes a value between 50 and 100) | D (D denotes a ratio between 50 and 100) | 500 to 1000 | 1 to 10 | 1 to 10 | 3.16 to 10 |  | 0.1 to 1
9 | CCc1cc(O)ccc1-c1ccc2c(-c3nc(C4=CCN(C5CCN(C)CC5)C4)c[nH]3)n[nH]c2c1F [Example 201] |  |  | A (For the Lung Tissue AUC(0-24), A denotes a value between 100 and 200) | B (B denotes a ratio between 200 and 300) | 500 to 1000 | 1 to 10 | 0.1 to 1 | 3.16 to 10 | A (A represents a pKi value ≥10 (Ki≤0.1 nM)) | 0.1 to 1
10 | CCc1cc(O)ccc1-c1ccc2c(-c3nc(C4=CCN(C)CC4)c[nH]3)n[nH]c2c1F [Example 21] |  | A (A represents a pKi value ≥10 (Ki≤0.1 nM)) | C (C denotes a value between 9 and 50) | D (D denotes a ratio between 50 and 100) | < 500 | 0.1 to 1 | 0.1 to 1 | 3.16 to 10 | A (A represents a pKi value ≥10 (Ki≤0.1 nM)) | 
11 | CCc1cc(O)ccc1-c1ccc2c(-c3nc(C4=C(C)CNCC4)c[nH]3)n[nH]c2c1F [Example 227] | 0.1 to 1 |  | A (For the Lung Tissue AUC(0-24), A denotes a value between 100 and 200) | C (C denotes a ratio between 100 and 200) | 500 to 1000 | 1 to 10 | 1 to 10 | 10 to 31.6 |  | 0.1 to 1
12 | CCc1cc(O)ccc1-c1ccc2c(-c3nc(C4=CC[C@@H](C)NC4)c[nH]3)n[nH]c2c1F [Example 235] |  |  | C (C denotes a value between 9 and 50) | C (C denotes a ratio between 100 and 200) | < 500 | 1 to 10 | 0.1 to 1 | 10 to 31.6 | A (A represents a pKi value ≥10 (Ki≤0.1 nM)) | 0.1 to 1
13 | CCc1cc(O)ccc1-c1ccc2c(-c3nc(C4=C[C@@H](COC)NC4)c[nH]3)n[nH]c2c1F [Example 246] | 0.1 to 1 |  | C (C denotes a value between 9 and 50) | D (D denotes a ratio between 50 and 100) | < 500 | 10 to 100 | 1 to 10 | 10 to 31.6 |  | 0.1 to 1
